The record followed here is patent publication US4448785A, “N-Unsaturated fatty acid amides of tryptophan ester homologues and anti-cholesteric use thereof” (Sandoz, Inc., priority 1982, dated 1984).

In this assay the test system is cholesterol absorption. The assay is described as follows: Zilversmit test, cholesterol absorption in the cholesterol fed rabbit. In kind it is in vivo, Male New Zealand rabbits. The note with it: three days, n = 4. How it is done:
The Zilversmit test is carried out as follows:
Cholesterol-1-2-^3 H and cholesterol-4-^14 C were obtained from New England Nuclear. They were purified by high pressure liquid chromatography (Beckman Model 332) using a reverse phase ultrasphere O.D.S. 25 cm×4.5 mm I.D. column with the following solvent system:
The flow rate was 1 ml/min. Detection was made at 206 nm using a Model 155-40 UV-Vis detector (Beckman). The radioactive cholesterol solution in benzene was evaporated to dryness, taken up in isopropyl alcohol and injected into the HPLC in five 20 μl aliguots. Cholesterol fractions were collected, pooled and evaporated to dryness. The purified fraction was rechromatographed under the same conditions to confirm purity.
The HPLC-purified cholesterol-1-2-^3 H was dissolved in corn oil (M.C.B.U.S.P.). The corn oil solution was added to 6.8% skim milk in a ratio of 1:4. This mixture was homogenized by sonicating with a Bronwell Biosonik IV sonicator using a microprobe at a "Lo" setting of 50 until a homogenous suspension was formed. […]
The radioactivity was determined by liquid scintillation counting in either a Packard 3320 Liquid Scintillation Spectrometer or a Beckman Model LS8000. […]
The combined efficiency of the oxidizer and liquid scintillation counter was determined for each isotope from standards of known specific activity. […]

`CCCCCCCC/C=C\CCCCCCCC(=O)NC(Cc1c[nH]c2ccccc12)C(=O)OCC` (single isomer, unassigned) [Example 2a, α-[(1-oxo-9-octadecenylamino)]-1H-indole-3-propanoic acid, ethyl ester (cis isomer)]: the “Percent Cholesterol Absorption” value runs as follows: (200 mg/kg by gavage, ± S.E.M., control 43.0 ± 2.03) 20.0 ± 1.43%; (500 mg/kg by gavage, Mean ± S.E.M., control 41.0 ± 3.3) 11.2 ± 1.1%.
